Results taken from article PMC11642994, “AGC family kinase of Entamoeba histolytica: Decoding the members biochemically” (PLOS Pathogens, 2024).
“And” between values parts separate entries of the source, which are not always exact repeats. Equal entries are not always repeated. “Also recorded” adds a separate entry of the source. Where two headings read alike, the source gives them in different places.

Tests used:
Assay type in all cases: biochemical, Entamoeba histolytica
EhAGCK1 = assay: ADP-Glo kinase assay with peptide substrates / ATP, EhAGCK1 WT; details: for phosphorylation by EhAGCK1 WT (words): 1 hr
Protocol: (§1) The phosphorylation activity of kinases was measured using the ADP-Glo kinase assay kit according to the manufacturer’s protocol with few modifications (Promega, Madison, WI, Catalogue number V6930). Assays were performed in a Corning 384-well low-volume white round bottom polystyrene NBS microplate with a total volume of 32 μl in the ratio of 1:1:2, corresponding to the kinase reaction, ADP-Glo reagent, and detection reagent, respectively. The kinase reaction was performed in an 8 μl volume containing 4 μl of purified protein kinases, 2 μl of peptide substrate, and 2 μl of ATP (Promega, Madison, WI). The working concentration of all the kinase reaction components was prepared in the standard kinase assay buffer (40 mM Tris-Cl pH 7.5, 20 mM MgCl2, 2 mM DTT). Along with other controls, only buffer-negative controls without protein kinase, substrate, and ATP were included in the kinase assay. Kinase assay reactions in each well were started immediately by adding ATP. The reactions were allowed to continue for 1 h at 30°C in the incubator chamber without shaking. The kinase assay was quenched by adding 8 μl of ADP-Glo reagent in each well before adding ADP-Glo reagent. The reaction plate was incubated for 5 min at room temperature. Termination reactions were allowed to proceed for 40 min at room temperature. ADP-Glo reagent, in addition to quenching the reaction, scavenges the unconsumed ATP from the reaction. In the final step of the ADP-Glo kinase assay, 16 μl of kinase detection reagent was added to each well and incubated for 40 min to simultaneously convert ADP to ATP and allow the newly synthesised ATP to be measured using a luciferase/luciferin reaction. The luminescent signal generated was measured using a SpectraMax i3x Multi-Mode Microplate Reader (Molecular Devices), and it was proportional to the ADP concentration produced and correlated with the kinase activity.
(§2) Standard curves were constructed by plotting the saturating relative light units (RLU) for each sample against the concentration of the peptide substrate or ATP in the reaction, following the previously reported method. The slope of the standard curve was determined and used to convert the reaction rate velocities. Velocities were expressed in μM/min by calculating the rate of reaction (DY/DX) for each reaction, where DY represented the difference between the luminescence measurements at the beginning and end of the reaction, and DX denoted the duration of the reaction (total time of reaction: 60 min). The converted velocities were plotted against the substrate concentration, and the data were fitted to the Michaelis-Menten equation to determine Km and Vmax.
(§3) The kinase assay data presented here are the mean ± standard error (SE) of n≥3 of three independent experiments. The Km and Vmax were determined from a direct, nonlinear fit of [V] versus [S] plots using the Michaelis-Menten equation: V=Vmax[S]/Km+[S] using the GraphPad Prism 9.0 software package (GraphPad Software Inc., CA, USA). Additionally, the Microscale Thermophoresis (MST) experiments were conducted using the Monolith NT.11.5 instrument, with triplicate runs. Statistical comparisons were made using Student’s t-test. Differences in mean values were considered significant at *p-value≤0.05, **p-value≤0.01, ***p-value≤0.001, ****p-value≤0.0001.

EhAGCK2 = assay: ADP-Glo kinase assay with peptide substrates / ATP, EhAGCK2 WT; details: for ATP Vmax / Km: mean ± SE, n = 6
Protocol: as §1, §2, §3

autophosphorylation = assay: ATP biotinylation kinase assay (autophosphorylation, SA-HRPO western blot); details: 4 μM kinase (EhPDK1 2 μM), 20 μM biotin-labelled ATP, 40 mM Tris-Cl pH 7.8, 10 mM MgCl2, 2 mM DTT, 30°C, 1 h
Protocol: ATP biotinylation assays were performed in the presence of 4 μM of EhAGCK1 (WT, T275D, and KDD1) and EhAGCK2 (WT, T274D, and KDD2) along with 2 μM of wild-type EhPDK1 in the presence of activation buffer 40 mM Tris-Cl pH 7.8, 10 mM MgCl2, and 2 mM DTT and incubated at 30°C for 1 h. The reaction was triggered by adding 20 μM biotin-labelled ATP (Catalogue NU-970-BIO, Jena Bioscience). 20 μl of the reaction was collected at the indicated time point and quenched by the addition of 4x SDS-loading dye. After gel electrophoresis, phosphorylated proteins were visualized by immunoblotting using HRPO-conjugated streptavidin (Invitrogen).
ATP biotinylated protein samples were separated by SDS-PAGE and then electro-transferred to PVDF membrane (Pall life sciences). The membrane was blocked overnight by 5% BSA (G-Biosciences) in TBS-T (TBS with 0.1% Tween 20) and stained with Ponceau S. This blocking process was done overnight at 4°C. The membrane was then incubated with 1:1000 dilution of HRPO-conjugated streptavidin (Invitrogen) at room temperature. Following antibody incubation, the blots were carefully cleaned with TBS-T. Band detection was carried out with a Millipore ECL kit.

[1] = S3 Table, ADP-Glo, Michaelis-Menten fit at various substrate concentrations, 20 μM kinase, 250 μM ATP, mean ± SE, n = 6, read-out: Peptide Km in the presence of EhAGCK1
[2] = S3 Table, ADP-Glo, Michaelis-Menten fit at various substrate concentrations, 20 μM kinase, 250 μM ATP, read-out: Peptide Km in the presence of EhAGCK2

Molecule | phosphorylation by EhAGCK1 WT (words) (EhAGCK1; 20 μM EhAGCK1 WT, 250 μM ATP) | Km (EhAGCK1; [1]) | Km (EhAGCK2; [2]) | other results
Nc1ncnc2c1ncn2[C@@H]1O[C@H](COP(=O)(O)OP(=O)(O)OP(=O)(O)O)[C@@H](O)[C@H]1O [ATP, reference compound] |  |  |  | Km (EhAGCK1; EhAGCK1 WT 20 μM, 50 μM EhRhoGEF peptide substrate, ATP 0-1000 μM, mean ± SE, n = 6, read-out: ATP Km): 125 ± 16 µM; ATP Vmax (EhAGCK1; EhAGCK1 WT 20 μM, 50 μM HsGSK3 peptide substrate, ATP 0-1000 μM, mean ± SE, n = 6): 260.7 ± 9.4 µM/min; Km (EhAGCK1; EhAGCK1 WT 20 μM, 50 μM HsGSK3 peptide substrate, ATP 0-1000 μM, mean ± SE, n = 6, read-out: ATP Km): 242 ± 22.2 µM; ATP Vmax (EhAGCK2; EhAGCK2 WT 20 μM, 50 μM EhCoactosin peptide substrate, ATP 0-1000 μM): 444.4 ± 18.5 µM/min; Km (EhAGCK2; EhAGCK2 WT 20 μM, 50 μM EhCoactosin peptide substrate, ATP 0-1000 μM, read-out: ATP Km): 92.1 ± 16 µM; ATP Vmax (EhAGCK2; EhAGCK2 WT 20 μM, 50 μM HsGSK3 peptide substrate, ATP 0-1000 μM): 271.4 ± 30.5 µM/min; Km (EhAGCK2; EhAGCK2 WT 20 μM, 50 μM HsGSK3 peptide substrate, ATP 0-1000 μM, read-out: ATP Km): 292 µM and 291 µM
ELDSDEEQKELER [Filamin-A interacting protein] | recognized as substrates by EhAGCK1 WT | 3.28 ± 1.19 µM | 0.147 µM | phosphorylation by EhAGCK1 WT (words) (EhAGCK1; 20 μM EhAGCK1 WT, 250 μM ATP, listed as Filamin-A-interacting protein): specifically phosphorylated; Km (EhAGCK1; ADP-Glo luminescence, 20 μM EhAGCK1 WT, 250 μM ATP, peptide 0-200 μM, 30°C, 60 min, standard buffer 40 mM Tris-Cl pH 7.5, 20 mM MgCl2, 2 mM DTT, Michaelis-Menten fit, mean ± SE, n = 6, read-out: Km (peptide substrate)): 3.28 ± 1.19 µM
KSPTIDEIK [Hypothetical protein, peptide 133-141 of E. histolytica Hypothetical protein (EHI_025430)] | notable phosphorylation by EhAGCK1 | 2.56 ± 0.99 µM | 0.197 ± 0.08 µM | 
KTITPVVEDPCER [HEAT repeat domain-containing protein, peptide 661-673 of E. histolytica HEAT repeat domain-containing protein (EHI_050150)] | notable phosphorylation by EhAGCK1 | 3.62 ± 1.34 µM | 0.262 ± 0.2 µM | 
MAGIQLADEVTSVYNDF KLSHKYRYIV [Actophorin, peptide 1-27 of E. histolytica Actophorin (EHI_197480)] |  | 2.83 ± 1.69 µM | 0.258 ± 0.09 µM | 
RRESVDYTNNK [Unconventional Myosin IB, peptide 754-764 of E. histolytica Unconventional myosin IB (EHI_110810)] |  | 3.63 ± 2.58 µM | 1.34 ± 0.57 µM | phosphorylation by EhAGCK2 WT (EhAGCK2; 20 μM EhAGCK2 WT, 250 μM ATP, 1 hr): recognised as substrates by EhAGCK2 WT; also recorded: accepted as substrates by EhAGCK2 WT; Km (EhAGCK2; ADP-Glo luminescence, 20 μM EhAGCK2 WT, 250 μM ATP, peptide 0-200 μM, 30°C, 60 min, standard buffer 40 mM Tris-Cl pH 7.5, 20 mM MgCl2, 2 mM DTT, Michaelis-Menten fit, read-out: Km (peptide substrate)): 1.34 ± 0.57 µM
SALDNGTYSPLLSPTR [RhoGEF-1, peptide 236-251 of E. histolytica RhoGEF-1 (EHI_159500)] |  | 4.42 ± 2.75 µM | 0.271 ± 0.17 µM | 
KDD2: kinase-dead domain EhAGCK2 (K147A and D242A) (protein, left off: His tag, end not stated, kept) MSVKTGWGIKEGGSWKTWKRRMFKLSEGKIEYFKDEGMTKKMGDIELSKVTHVLAVDQYKKRKNLIRIITPSRTYHISVNEESDRDSWVEAIRGMIGDNKEKKTQEEKEENKISMEDFDIITLLGKGAFGKVMLVKYKKEGKIYAMATVEKAQIIDSNEVEHILSEKVVLSQINNPFLVNMHYSFQTPTHLVFILDYCAGGELFSYLQKHPAGLPEVDVKFYAAQIVLALEHMHSTGIIYRAIKPENILFEKDGYLRMTDFGLAKSTKKGTTNTFCGTPEYLAPEVVEGLDYNEYIDWWGLGILIYEMLFTQSPFLAETMEELYENILQREPKYPSTKPITEECMNFINSLLIKEPSKRLTDPDQIKTHPWFNGFNFDDLYKKKLTPPYVPKIQSQTDTSNFDDEITQEEVDLKTGVEVVADNRFFTDFTYVQK |  |  |  | autophosphorylation activity (words) (autophosphorylation): remain inactive
